Test results taken from EP0435794A1, “Alkenyl- or heteroaryl thio, sulfone, sulfoxy herbicides” (RHONE-POULENC AGROCHIMIE, priority 1989, dated 1991).

Tests used:
Type in all cases: in vivo
Echinochloa crus galli [1] = experiment: Exemple A: herbicide application, pre-emergence; details: dose 4 Kg m.a./ha, notation 0 à 5 after 24 days
Source text: (§1) Exemple A - Application herbicide, en prélevée des espèces végétales
(§2) Dans des pots de 7 x 7 x 8 cm remplis de terre agricole légère, on sème un nombre de graines déterminé en fonction de l'espèce végétale et de la grosseur de la graine.
(§3) Les pots sont traités par pulvérisation de bouillie en quantité correspondant à une dose volumique d'application de 500 l/ha et contenant la matière active à la concentration désirée.
(§4) Le traitement avec la bouillie est donc effectué sur des graines non recouvertes de terre (on utilise le terme de bouillie pour désigner, en général, les compositions diluées à l'eau, telles qu'on les applique sur les végétaux).
(§5) La bouillie utilisée pour le traitement est une solution ou suspension de la matière active dans un mélange acétone/eau en proportions 50/50, en présence de 0,05 % en poids de cemulsol NP 10 (agent tensio-actif) constitué d'alkylphénol polyéthoxylé, notamment de nonylphénol polyéthoxylé) et 0,04 % en poids de tween 20 (agent tensio-actif constitué d'un oléate de dérivé polyoxyéthyléné du sorbitol).
(§6) Dans le cas d'une suspension, celle-ci est obtenue en mélangeant et broyant les ingrédients dans un microniseur de façon à obtenir une grosseur moyenne de particules inférieure à 40 microns.
(§7) Après traitement, on recouvre les graines d'une couche de terre d'environ 3 mm d'épaisseur.
(§8) Les pots sont alors placés dans des bacs destinés à recevoir l'eau d'arrosage, en subirrigation, et maintenus pendant 24 jours à température ambiante sous 70 % d'humidité relative.
(§9) Le relevé est effectué de la façon suivante:
(§10) Au bout de 24 jours, on mesure un pourcentage (D) des destructions du nombre de pieds dans le pot traité par rapport au nombre de plantes dans les pots non traités (témoin). On mesure, sur les plantes traitées restantes, le pourcentage de réduction de taille (RT) par rapport aux plantes témoin.
(§11) Le pourcentage du volume foliaire non détruit par le produit est donc donné par la formule: ([100-D] x [100-RT])/(100)= A [formula]
(§12) Cette valeur A est transformée en notation de 0 à 5 selon l'échelle suivante:
(§13) Les résultats obtenus sont présentés après l'exemple B pour des doses d'application de 4000 g/ha à 1000 g/ha.
(§14) Les espèces végétales utilisées dans ces exemples A et B sont: […]

Digitaria sanguinalis = experiment: Exemple A: herbicide application, pre-emergence; details: dose 4 Kg m.a./ha, notation 0 à 5 after 24 days
Source text: as §1, §2, §3, §4, §5, §6, §7, §8, §9, §10, §11, §12, §13, §14

Avena fatua = experiment: Exemple A: herbicide application, pre-emergence; details: dose 4 Kg m.a./ha, notation 0 à 5 after 24 days
Source text: as §1, §2, §3, §4, §5, §6, §7, §8, §9, §10, §11, §12, §13, §14

Alopecurus myosuroïdes = experiment: Exemple A: herbicide application, pre-emergence; details: dose 4 Kg m.a./ha, notation 0 à 5 after 24 days
Source text: as §1, §2, §3, §4, §5, §6, §7, §8, §9, §10, §11, §12, §13, §14

Cyperus esculentus = experiment: Exemple A: herbicide application, pre-emergence; details: dose 4 Kg m.a./ha, notation 0 à 5 after 24 days
Source text: as §1, §2, §3, §4, §5, §6, §7, §8, §9, §10, §11, §12, §13, §14

Echinochloa crus galli [2] = experiment: Exemple D: herbicide application pre or post emergence on submerged plants (rice paddy model); details: 24 days; for % d'efficacité ECHINOCHLOA CRUS GALLI (1 feuille): 1-leaf stage; for % d'efficacité ECHINOCHLOA CRUS GALLI (prélevée): pre-emergence
Source text: (§15) Exemple D : Application herbicide en pré ou post levée d'espèces végétales submergées (modèle rizière)
(§16) Dans des pots de 9 x 9 x 9 cm remplis de terre agricole on sème un nombre de graines ou on plante un nombre de bulbes ou rhizomes déterminé en fonction de l'espèce végétale ou de la grosseur des organes. Pour le riz, 4 plants au stade 2-3 feuilles sont transplantés dans un pot rempli de terre végétale 4 jours avant le traitement.
(§17) Les pots sont ensuite immergés dans un bac de taille adapté aux pots de manière à ce que l'eau recouvre de 1 à 2 cm la surface du sol.
(§18) Le stade de traitement est le stade prélevée ou 1 à 2 feuilles développées des adventices. Le traitement est effectué par répartition de la bouillie dans l'eau de submersion en quantité correspondant à une dose d'application de 500 l/ha et contenant la matière active à la concentration requise.
as §5, with “proportion” for “proportions”, “Cemulsol” for “cemulsol”, “tensioactif” for “tensio-actif)”
(§19) Dans le cas d'une suspension, celle-ci est obtenue en mélangeant et broyant les ingrédients dans un microniseur de façon à obtenir une grosseur moyenne de particules inférieures à 40 microns.
(§20) Le niveau d'eau de submersion est ensuite maintenu par apport d'eau tout au long de la durée de l'expérimentation soit […]. Les bacs contenant les pots sont placés dans une serre régulée en température à 18°C la nuit et 22°C le jour et en humidité à 70 % d'humidité relative.
(§21) Au bout de 24 jours, on compte le nombre de plantes vivantes dans les pots traités par la bouillie contenant la matière active à tester et le nombre de plantes vivantes dans un pot témoin traité selon les mêmes conditions, mais au moyen d'une bouillie ne contenant pas de matière active. On mesure ainsi un pourcentage (D) des destructions du nombre de pieds dans le pot traité par rapport au nombre de plantes dans les pots non traités (témoin). On mesure, sur les plantes traitées restantes, le pourcentage de réduction de taille (RT) par rapport aux plantes témoin. Le pourcentage du volume foliaire non détruit par le produit est donc donné par la formule: ([100-D] x [100-RT])/(100)= A [formula]
as §12
(§22) Les résultats obtenus sont présentés dans le tableau suivant pour des doses d'application de 500, 1000 ou 2000 g de matière active par hectare.

ALISMA CANALICULATUM = experiment: as above; details: 2-leaf stage, 24 days
Source text: as §15, §16, §17, §18
as §5, with “proportion” for “proportions”, “Cemulsol” for “cemulsol”, “tensioactif” for “tensio-actif)”
as §19, §20, §21, §12, §22

CYPERUS SEROTINUS = experiment: as above; details: 24 days; for % d'efficacité CYPERUS SEROTINUS (1 feuille): 1-leaf stage; for % d'efficacité CYPERUS SEROTINUS (prélevée): pre-emergence
Source text: as §15, §16, §17, §18
as §5, with “proportion” for “proportions”, “Cemulsol” for “cemulsol”, “tensioactif” for “tensio-actif)”
as §19, §20, §21, §12, §22

[3] = tested on: ORYSA SATIVA Cv Nihonbare; experiment: Exemple D: herbicide application on submerged plants (rice paddy model), transplanted rice; details: rice transplanted 4 days before treatment, 24 days
Source text: as §15, §16, §17, §18
as §5, with “proportion” for “proportions”, “Cemulsol” for “cemulsol”, “tensioactif” for “tensio-actif)”
as §19, §20, §21, §12, §22
COMPOSE N°5/RIZ (transplanté 4 jours avant traitement)

[4] = 500 g de matière active par hectare
[5] = 1000 g de matière active par hectare
[6] = 2000 g de matière active par hectare

C=C(CS(=O)(=O)c1sccc1Cl)c1cccc(F)c1 [compound 5, 1-[(3-chloro 2-thiényl)sulfonyl] 2-(3-fluorophényl) 2-propène]
ACTIVITE HERBICIDE DE PRELEVEE ECH (Echinochloa crus galli [1]): 5 (O à 10)
ACTIVITE HERBICIDE DE PRELEVEE DIG (Digitaria sanguinalis): 5 (O à 10)
ACTIVITE HERBICIDE DE PRELEVEE AVE (Avena fatua): 5 (O à 10)
ACTIVITE HERBICIDE DE PRELEVEE ALO (Alopecurus myosuroïdes): 5 (O à 10)
ACTIVITE HERBICIDE DE PRELEVEE CYP (Cyperus esculentus): 5 (O à 10)
% d'efficacité ECHINOCHLOA CRUS GALLI (1 feuille) (Echinochloa crus galli [2]; [4]): 4 (10 à 30)
% d'efficacité ECHINOCHLOA CRUS GALLI (1 feuille) (Echinochloa crus galli [2]; [5]): 4 (10 à 30)
% d'efficacité ECHINOCHLOA CRUS GALLI (1 feuille) (Echinochloa crus galli [2]; [6]): 4 (10 à 30)
% d'efficacité ECHINOCHLOA CRUS GALLI (prélevée) (Echinochloa crus galli [2]; [4]): 5 (0 à 10)
% d'efficacité ECHINOCHLOA CRUS GALLI (prélevée) (Echinochloa crus galli [2]; [5]): 5 (0 à 10)
% d'efficacité ECHINOCHLOA CRUS GALLI (prélevée) (Echinochloa crus galli [2]; [6]): 5 (0 à 10)
% d'efficacité ALISMA CANALICULATUM (2 feuilles) (ALISMA CANALICULATUM; [4]): 3 (30 à 50)
% d'efficacité ALISMA CANALICULATUM (2 feuilles) (ALISMA CANALICULATUM; [5]): 4 (10 à 30)
% d'efficacité ALISMA CANALICULATUM (2 feuilles) (ALISMA CANALICULATUM; [6]): 4 (10 à 30)
% d'efficacité CYPERUS SEROTINUS (1 feuille) (CYPERUS SEROTINUS; [4]): 3 (30 à 50)
% d'efficacité CYPERUS SEROTINUS (1 feuille) (CYPERUS SEROTINUS; [5]): 4 (10 à 30)
% d'efficacité CYPERUS SEROTINUS (1 feuille) (CYPERUS SEROTINUS; [6]): 5 (0 à 10)
% d'efficacité CYPERUS SEROTINUS (prélevée) (CYPERUS SEROTINUS; [4]): 2 (50 à 70)
% d'efficacité CYPERUS SEROTINUS (prélevée) (CYPERUS SEROTINUS; [5]): 5 (0 à 10)
% d'efficacité CYPERUS SEROTINUS (prélevée) (CYPERUS SEROTINUS; [6]): 5 (0 à 10)
% d'efficacité ORYSA SATIVA Cv Nihonbare [3, 4]: 0 (90 à 100)
% d'efficacité ORYSA SATIVA Cv Nihonbare [3, 5]: 0 (90 à 100)
% d'efficacité ORYSA SATIVA Cv Nihonbare [3, 6]: 0 (90 à 100)
